In ChEMBL document CHEMBL1126463, “Thiol-induced crosslinking of human blood proteins: implications for tumor immunity” (Bioorg Med Chem Lett, 1992) one finds Inhibitory concentration data, which are given here for 8 compounds.

Where only a bound is given, the exact number is not on record here.

This series can be described thus: Effect of compound on gelation time of human serum induced by dithiothreitol (DTT). The format is ADME.

In the case of `O=C1OC(C(O)CO)C(=O)C1=O` (stereo not drawn) [DEHYDROASCORBIC ACID], the Inhibitory concentration was 20 mM.

Turning to `O=C1O[C@H]([C@@H](O)CO)C(O)=C1O` [ASCORBIC ACID], the Inhibitory concentration was over 100 mM.

For `C=CCSSCC=C` [DIALLYLDISULFIDE], the Inhibitory concentration is reported as 20 mM.

In the case of `N[C@@H](CS)C(=O)O` [CYSTEINE], the Inhibitory concentration is on record as over 200 mM.

In turn, `NC(CSSCC(N)C(=O)O)C(=O)O` (stereo not drawn) returned an Inhibitory concentration of 20 mM.

As to `C=CCSS/C=C/C[S+]([O-])CC=C` (stereo not drawn) [AJOENE], the Inhibitory concentration came to 10 mM.

Regarding `C=CCSCC=C` [DIALLYL SULFIDE], the Inhibitory concentration was over 200 mM.

For `CC(=O)C=O` [METHYLGLYOXAL], the Inhibitory concentration turned out to be 20 mM.
